Read-outs that look alike come from different tables or passages of the source.
Tested on: MDA-MB-231 human breast cancer cells
Test: Cell proliferation assay (CellTiter-Glo, 72 hours treatment)
Format: cell-based
Conditions: Homo sapiens, read-out: MDA-MB-231 cell proliferation assay (IC50)
Summary of the method: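 IC50 categories: under 100 nM +++, 100–1000 nM ++, above 1000 nM +, derived by sigmoidal curve fitting of CellTiter-Glo luminescence. Cells plated at 2,500 per well, dosed the following day and exposed 72 h at 37 °C versus DMSO control.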

[1] = MDA-MB-231 cells, 72 hours at 37° C., CellTiter-Glo

Structure (SMILES)	IC50 [1] [nM]	IC50 (MDA-MB-231, 72 h) [nM]
N#Cc1ccc([C@@]23Oc4cc(Cl)cnc4[C@]2(O)[C@H](CO)C[C@H]3c2ccccc2)cc1 (racemic) [168F, Rac-4-((5aR,6S,8S,8aR)-3-chloro-8a-hydroxy-8-(hydroxymethyl)-6-phenyl-6,7,8,8a-tetrahydro-5aH-cyclopenta[4,5]furo[3,2-b]pyridin-5a-yl)benzonitrile]	> 1000	–
O=C1O[C@@H]2[C@H]1[C@@H](c1ccccc1)[C@]1(c3ccc(Br)cc3)Oc3cc(Cl)cnc3[C@]21O (racemic) [169F, Rac-(2aR,3S,3aR,8bS,8cR)-3a-(4-bromophenyl)-6-chloro-8b-hydroxy-3-phenyl-3,3a,8b,8c-tetrahydrooxeto[3″,2″:4′,5′]cyclopenta[1′,2′:4,5]furo[3,2-b]pyridin-2(2aH)-one]	> 1000	–
COc1cncc2c1[C@]1(O)[C@@H](CN)[C@H](CO)[C@@H](c3ccccc3)[C@]1(c1ccc(Br)cc1)O2 (racemic) [170F, Rac-(4bR,5R,6R,7S,7aR)-5-(aminomethyl)-7a-(4-bromophenyl)-6-(hydroxymethyl)-4-methoxy-7-phenyl-5,6,7,7a-tetrahydro-4bH-cyclopenta[4,5]furo[2,3-c]pyridin-4b-ol]	< 100	–
COc1cncc2c1[C@]1(O)[C@@H](CN)[C@H](CO)[C@@H](c3ccccc3)[C@]1(c1ccc(C#N)cc1)O2 (racemic) [171F, Rac-4-((4bR,5R,6R,7S,7aR)-5-(aminomethyl)-4b-hydroxy-6-(hydroxymethyl)-4-methoxy-7-phenyl-4b,5,6,7-tetrahydro-7aH-cyclopenta[4,5]furo[2,3-c]pyridin-7a-yl)benzonitrile]	100 to 1000	–
COc1cncc2c1[C@]1(O)[C@@H](CN)C[C@@H](c3ccccc3)[C@]1(c1ccc(Br)cc1)O2 (racemic) [172F, Rac-(4bR,5R,7S,7aR)-5-(aminomethyl)-7a-(4-bromophenyl)-4-methoxy-7-phenyl-5,6,7,7a-tetrahydro-4bH-cyclopenta[4,5]furo[2,3-c]pyridin-4b-ol]	–	< 100
COc1cncc2c1[C@]1(O)[C@@H](CN)C[C@@H](c3ccccc3)[C@]1(c1ccc(C#N)cc1)O2 (racemic) [173F, Rac-4-((4bR,5R,7S,7aR)-5-(aminomethyl)-4b-hydroxy-4-methoxy-7-phenyl-4b,5,6,7-tetrahydro-7aH-cyclopenta[4,5]furo[2,3-c]pyridin-7a-yl)benzonitrile]	< 100	–
NC[C@H]1C[C@@H](c2ccccc2)[C@]2(c3ccc(Br)cc3)Oc3cc(Cl)cnc3[C@]12O (racemic) [174F, Rac-(5aR,6S,8R,8aR)-8-(aminomethyl)-5a-(4-bromophenyl)-3-chloro-6-phenyl-5a,6,7,8-tetrahydro-8aH-cyclopenta[4,5]furo[3,2-b]pyridin-8a-ol]	< 100	–
N#Cc1ccc([C@@]23Oc4cc(Cl)cnc4[C@]2(O)[C@@H](CN)C[C@H]3c2ccccc2)cc1 (racemic) [175F, Rac-4-((5aR,6S,8R,8aR)-8-(aminomethyl)-3-chloro-8a-hydroxy-6-phenyl-6,7,8,8a-tetrahydro-5aH-cyclopenta[4,5]furo[3,2-b]pyridin-5a-yl)benzonitrile]	< 100	–
N#Cc1ccc([C@@]23Oc4cc(C#N)cnc4[C@]2(O)[C@@H](CN)C[C@H]3c2ccccc2)cc1 (racemic) [176F, rac-(5aR,6S,8R,8aR)-8-(aminomethyl)-5a-(4-cyanophenyl)-8a-hydroxy-6-phenyl-5a,7,8,8a-tetrahydro-6H-cyclopenta[4,5]furo[3,2-b]pyridine-3-carbonitrile]	100 to 1000	–
O[C@]12c3ncc(Cl)cc3O[C@@]1(c1ccc(Br)cc1)[C@H](c1ccccc1)C[C@@H]2CN1CCOCC1 (racemic) [177F, rac-(5aR,6S,8R,8aR)-5a-(4-bromophenyl)-3-chloro-8-(morpholinomethyl)-6-phenyl-5a,6,7,8-tetrahydro-8aH-cyclopenta[4,5]furo[3,2-b]pyridin-8a-ol]	100 to 1000	–
N#Cc1ccc([C@@]23Oc4cc(Cl)cnc4[C@]2(O)[C@@H](CN2CCOCC2)C[C@H]3c2ccccc2)cc1 (racemic) [178F, Rac-4-((5aR,6S,8R,8aR)-3-chloro-8a-hydroxy-8-(morpholinomethyl)-6-phenyl-6,7,8,8a-tetrahydro-5aH-cyclopenta[4,5]furo[3,2-b]pyridin-5a-yl)benzonitrile]	< 100	–
COc1cncc2c1[C@]1(O)[C@@H](CN3CCOCC3)[C@H](CO)[C@@H](c3ccccc3)[C@]1(c1ccc(Br)cc1)O2 (racemic) [179F, Rac-(4bR,5R,6R,7S,7aR)-7a-(4-bromophenyl)-6-(hydroxymethyl)-4-methoxy-5-(morpho-linomethyl)-7-phenyl-5,6,7,7a-tetrahydro-4bH-cyclopenta[4,5]furo[2,3-c]pyridin-4b-ol]	< 100	–
COc1cncc2c1[C@]1(O)[C@@H](CN3CCOCC3)[C@H](CO)[C@@H](c3ccccc3)[C@]1(c1ccc(C#N)cc1)O2 (racemic) [180F, Rac-4-((4bR,5R,6R,7S,7aR)-4b-hydroxy-6-(hydroxymethyl)-4-methoxy-5-(morpholino-methyl)-7-phenyl-4b,5,6,7-tetrahydro-7aH-cyclopenta[4,5]furo[2,3-c]pyridin-7a-yl)benzonitrile]	< 100	–
COc1cncc2c1[C@]1(O)[C@@H](CNCC(F)F)[C@H](CO)[C@@H](c3ccccc3)[C@]1(c1ccc(Br)cc1)O2 (racemic) [181F, Rac-(4bR,5R,6R,7S,7aR)-7a-(4-bromophenyl)-5-(((2,2-difluoroethyl)amino)methyl)-6-(hydroxymethyl)-4-methoxy-7-phenyl-5,6,7,7a-tetrahydro-4bH-cyclopenta[4,5]furo[2,3-c]pyridin-4b-ol]	< 100	–
COc1cncc2c1[C@]1(O)[C@@H](CNCC(F)F)[C@H](CO)[C@@H](c3ccccc3)[C@]1(c1ccc(C#N)cc1)O2 (racemic) [182F, Rac-4-((4bR,5R,6R,7S,7aR)-5-(((2,2-difluoroethyl)amino)methyl)-4b-hydroxy-6-(hydroxyl-methyl)-4-methoxy-7-phenyl-4b,5,6,7-tetrahydro-7aH-cyclopenta[4,5]furo[2,3-c]pyridin-7a-yl)benzonitrile]	< 100	–
COc1cncc2c1[C@]1(O)[C@@H](CN3CCN(C)CC3)[C@H](CO)[C@@H](c3ccccc3)[C@]1(c1ccc(Br)cc1)O2 (racemic) [183F, Rac-(4bR,5R,6R,7S,7aR)-7a-(4-bromophenyl)-6-(hydroxymethyl)-4-methoxy-5-((4-methylpiperazin-1-yl)methyl)-7-phenyl-5,6,7,7a-tetrahydro-4bH-cyclopenta[4,5]furo[2,3-c]pyridin-4b-ol]	–	< 100
COc1cncc2c1[C@]1(O)[C@@H](CN3CCN(C)CC3)[C@H](CO)[C@@H](c3ccccc3)[C@]1(c1ccc(C#N)cc1)O2 (racemic) [184F, Rac-4-((4bR,5R,6R,7S,7aR)-4b-hydroxy-6-(hydroxymethyl)-4-methoxy-5-((4-methyl-piperazin-1-yl)methyl)-7-phenyl-4b,5,6,7-tetrahydro-7aH-cyclopenta[4,5]furo[2,3-c]pyridin-7a-yl)benzonitrile]	< 100	–
COc1cncc2c1[C@]1(O)[C@@H](CNC3COC3)[C@H](CO)[C@@H](c3ccccc3)[C@]1(c1ccc(Br)cc1)O2 (racemic) [185F, Rac-(4bR,5R,6R,7S,7aR)-7a-(4-bromophenyl)-6-(hydroxymethyl)-4-methoxy-5-((oxetan-3-ylamino)methyl)-7-phenyl-5,6,7,7a-tetrahydro-4bH-cyclopenta[4,5]furo[2,3-c]pyridin-4b-ol]	< 100	–

Reference: US10577378B2, “EIF4A-inhibiting compounds and methods related thereto” (eFFECTOR Therapeutics, Inc., priority 2015, dated 2020)
